Data as given in PubChem BioAssay AID256 (DTP/NCI, 2004).
Values joined by “and” are separate entries in the source; they are usually repeats but may differ in a detail not shown here. Identical values can stand only once. Inconclusive results and toxic doses are left out. Rule for the calls: active = survival T/C of 150% or more; inactive = T/C below 125% in these data.

Tested on: CD2F1 mice, L1210 leukemia ip, survival T/C
Test: NCI In Vivo Anticancer Drug Screen. Data for tumor model L1210 Leukemia (intraperitoneal) in CD2F1 (CDF1) mice
Details: higher = longer survival
How it was run: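 Compound-dosed mice with transplantable tumor versus matched vehicle controls; endpoint ratio T/C reported.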

[1] = endpoint: mean survival time, dose: 100.0 mg/kg/injection, schedule: Q01DX001 (ip), vehicle: saline with Tween-80
[2] = endpoint: mean survival time, dose: 200.0 mg/kg/injection, schedule: Q01DX001 (ip), vehicle: saline with Tween-80
[3] = endpoint: mean survival time, dose: 400.0 mg/kg/injection, schedule: Q01DX001 (ip), vehicle: saline with Tween-80
[4] = endpoint: mean survival time, dose: 100.0 mg/kg/injection, schedule: Q04DX003 (ip), vehicle: Klucel (hydroxypropylcellulose) (HPC)
[5] = endpoint: mean survival time, dose: 200.0 mg/kg/injection, schedule: Q04DX003 (ip), vehicle: Klucel (hydroxypropylcellulose) (HPC)
[6] = endpoint: mean survival time, dose: 100.0 mg/kg/injection, schedule: Q04DX002 (ip), vehicle: saline with Tween-80
[7] = endpoint: mean survival time, dose: 200.0 mg/kg/injection, schedule: Q04DX002 (ip), vehicle: saline with Tween-80
[8] = endpoint: mean survival time, dose: 100.0 mg/kg/injection, schedule: Q01DX001 (ip), vehicle: saline
[9] = endpoint: mean survival time, dose: 200.0 mg/kg/injection, schedule: Q01DX001 (ip), vehicle: saline
[10] = endpoint: mean survival time, dose: 400.0 mg/kg/injection, schedule: Q01DX001 (ip), vehicle: saline
[11] = endpoint: mean survival time, dose: 50.0 mg/kg/injection, schedule: Q01DX009 (ip), vehicle: saline with Tween-80
[12] = endpoint: mean survival time, dose: 100.0 mg/kg/injection, schedule: Q01DX009 (ip), vehicle: saline with Tween-80
[13] = endpoint: mean survival time, dose: 100.0 mg/kg/injection, schedule: Q04DX003 (ip), vehicle: saline with Tween-80
[14] = endpoint: mean survival time, dose: 200.0 mg/kg/injection, schedule: Q01DX009 (ip), vehicle: saline with Tween-80
[15] = endpoint: mean survival time, dose: 200.0 mg/kg/injection, schedule: Q04DX003 (ip), vehicle: saline with Tween-80
[16] = endpoint: mean survival time, dose: 400.0 mg/kg/injection, schedule: Q01DX009 (ip), vehicle: saline with Tween-80
[17] = endpoint: mean survival time, dose: 400.0 mg/kg/injection, schedule: Q04DX003 (ip), vehicle: saline with Tween-80
[18] = endpoint: mean survival time, dose: 12.5 mg/kg/injection, schedule: Q01DX009 (ip), vehicle: saline with Tween-80

Measured: T/C

CC(=O)Nc1ncnc2c1ncn2C1OC(COC(C)=O)C(NC(=O)C(F)(F)F)C1OC(C)=O (stereo not drawn)
inactive: endpoint: median survival time, dose: 12.5 mg/kg/injection, schedule: Q01DX005 (ip), vehicle: alkali diluted with saline 109 % of control | endpoint: median survival time, dose: 25.0 mg/kg/injection, schedule: Q01DX005 (ip), vehicle: alkali diluted with saline 102 % of control | endpoint: median survival time, dose: 50.0 mg/kg/injection, schedule: Q01DX005 (ip), vehicle: alkali diluted with saline 109 % of control | endpoint: median survival time, dose: 100.0 mg/kg/injection, schedule: Q01DX005 (ip), vehicle: alkali diluted with saline 107 % of control | endpoint: median survival time, dose: 200.0 mg/kg/injection, schedule: Q01DX005 (ip), vehicle: alkali diluted with saline 106 % of control

COc1ccc2c(c1O)-c1c(OC)c(OC)cc3c1C(C2)N(C)CC3 (stereo not drawn)
inactive: [1] 97 % of control | [2] 97 % of control | [3] 108 % of control

CCN(CC)CC(COC)Oc1cc(C)ccc1C(C)C (stereo not drawn)
inactive: [4] 92 % of control | [5] 93 % of control

COc1cc(C2=N/C(=C\c3ccc(Cl)c(Cl)c3)C(=O)O2)cc(OC)c1OC
inactive: [6] 114 % of control | [7] 95 % of control | endpoint: mean survival time, dose: 400.0 mg/kg/injection, schedule: Q04DX002 (ip), vehicle: saline with Tween-80 100 % of control

O=C(O)CCSCCC(=O)O
inactive: [8] 100 % of control | [9] 105 % of control | [10] 101 % of control

C/C=C\c1ccc(OCCOC(=O)Nc2cc(Cl)c(OC)cc2OC)c(OC)c1
inactive: [11] 90 % of control | [12] 90 % of control

N#C/C(=C\C1CC(Br)CCC1O)C1CCC([N+](=O)[O-])CC1 (stereo not drawn)
inactive: [11] 86 % of control | [12] 88 % of control

CCCCNC(=S)S
inactive: [12] 100 % of control | [13] 100 % of control | [14] 102 % of control | [15] 92 % of control | [16] 100 % of control | [17] 94 % of control

CC(C)(C#N)Nc1ccccc1
inactive: endpoint: mean survival time, dose: 3.13 mg/kg/injection, schedule: Q01DX009 (ip), vehicle: saline 100 % of control | endpoint: mean survival time, dose: 6.25 mg/kg/injection, schedule: Q01DX009 (ip), vehicle: saline with Tween-80 91 % of control | endpoint: mean survival time, dose: 6.25 mg/kg/injection, schedule: Q01DX009 (ip), vehicle: saline 94 % of control | [18] 94 % of control

COc1nc(N)nc2c1nnn2C1OC(CO)C(O)C1O (stereo not drawn)
inactive: endpoint: mean survival time, dose: 50.0 mg/kg/injection, schedule: Q01DX009 (ip), vehicle: Klucel (hydroxypropylcellulose) (HPC) 117 % of control

O=C(C(c1ccccc1)C(F)(F)F)N1CCCC1 (stereo not drawn)
inactive: [13] 97 % of control | [15] 100 % of control | [17] 97 % of control

NCCCC(N)(C(=O)O)C(F)F (stereo not drawn)
inactive: endpoint: median survival time, dose: 50.0 mg/kg/injection, schedule: Q01DX009 (ip), vehicle: distilled water + alcohol 102 % of control | endpoint: median survival time, dose: 100.0 mg/kg/injection, schedule: Q01DX009 (ip), vehicle: distilled water + alcohol 102 % of control | endpoint: median survival time, dose: 200.0 mg/kg/injection, schedule: Q01DX009 (ip), vehicle: distilled water + alcohol 105 % of control | endpoint: median survival time, dose: 400.0 mg/kg/injection, schedule: Q01DX009 (ip), vehicle: distilled water + alcohol 113 % of control | endpoint: median survival time, dose: 800.0 mg/kg/injection, schedule: Q01DX009 (ip), vehicle: distilled water + alcohol 103 % of control | endpoint: median survival time, dose: 1.0 % drug in feed or water or air, schedule: Q#C X 1 (adlb), vehicle: water 103 % of control | endpoint: median survival time, dose: 3.0 % drug in feed or water or air, schedule: Q#C X 1 (adlb), vehicle: water 116 % of control

Cc1cc(=O)[nH]c(Nc2ccccc2)n1
inactive: [13] 105 % of control | [15] 97 % of control | [17] 88 % of control

O=C1NC2CC3CC(C2)CC1C3
inactive: endpoint: mean survival time, dose: 12.5 mg/kg/injection, schedule: Q04DX003 (ip), vehicle: alcohol 100 % of control | endpoint: mean survival time, dose: 25.0 mg/kg/injection, schedule: Q04DX003 (ip), vehicle: alcohol 92 % of control | endpoint: mean survival time, dose: 50.0 mg/kg/injection, schedule: Q04DX003 (ip), vehicle: alcohol 97 % of control

COCC(=O)c1ccccc1
inactive: [12] 96 % of control | [14] 96 % of control | [16] 94 % of control

COc1cccc(OC)c1C1=CCCCCC1
inactive: [1] 96 % of control | [12] 101 % of control | [2] 98 % of control | [14] 97 % of control | [3] 93 % of control | [16] 104 % of control

COC(=O)C([NH-])c1ccccc1.COC(=O)C([NH-])c1ccccc1.[Cl][Pt+2][Cl] (stereo not drawn)
inactive: endpoint: median survival time, dose: 3.12 mg/kg/injection, schedule: Q04DX003 (ip), vehicle: saline 101 % of control | endpoint: median survival time, dose: 6.25 mg/kg/injection, schedule: Q04DX003 (ip), vehicle: saline 100 % of control | endpoint: median survival time, dose: 12.5 mg/kg/injection, schedule: Q04DX003 (ip), vehicle: saline 100 % of control | endpoint: median survival time, dose: 25.0 mg/kg/injection, schedule: Q04DX003 (ip), vehicle: saline 101 % of control | endpoint: median survival time, dose: 50.0 mg/kg/injection, schedule: Q04DX003 (ip), vehicle: saline 101 % of control | endpoint: median survival time, dose: 100.0 mg/kg/injection, schedule: Q04DX003 (ip), vehicle: saline 103 % of control

O=C1SCCC1NP(=O)(Oc1ccccc1)Oc1ccccc1 (stereo not drawn)
inactive: [12] 93 % of control | [14] 103 % of control | [16] 93 % of control

CC(O)C(=O)O.CCCCOC(=O)CC(O)(CC(=O)OCCCC)C(=O)OCCCC.[Cl-].[Cl-].[NH2-].[NH2-].[Pt+4]
inactive: endpoint: mean survival time, dose: 3.13 mg/kg/injection, schedule: Q04DX003 (ip), vehicle: Klucel (hydroxypropylcellulose) (HPC) 104 % of control and 108 % of control and 105 % of control | endpoint: mean survival time, dose: 6.25 mg/kg/injection, schedule: Q04DX003 (ip), vehicle: Klucel (hydroxypropylcellulose) (HPC) 108 % of control and 111 % of control and 98 % of control | endpoint: mean survival time, dose: 12.5 mg/kg/injection, schedule: Q04DX003 (ip), vehicle: Klucel (hydroxypropylcellulose) (HPC) 109 % of control [middle of 4 runs] | endpoint: mean survival time, dose: 25.0 mg/kg/injection, schedule: Q04DX003 (ip), vehicle: Klucel (hydroxypropylcellulose) (HPC) 96 % of control and 113 % of control and 104 % of control | [4] 95 % of control | [5] 113 % of control

Nc1nc(Cl)c2nc(Cl)n(C3OC(CO)C(O)C3O)c2n1 (stereo not drawn)
inactive: [8] 102 % of control | [9] 102 % of control | [10] 100 % of control

N#CC(OC1OC(COC2OC(CO)C(O)C(O)C2O)C(O)C(O)C1O)c1ccccc1 (stereo not drawn)
inactive: endpoint: mean survival time, dose: 12.5 mg/kg/injection, schedule: Q01DX009 (ip), vehicle: water 94 % of control | endpoint: mean survival time, dose: 25.0 mg/kg/injection, schedule: Q01DX009 (ip), vehicle: water 88 % of control and 104 % of control | endpoint: mean survival time, dose: 50.0 mg/kg/injection, schedule: Q01DX009 (ip), vehicle: water 98 % of control and 102 % of control | endpoint: mean survival time, dose: 100.0 mg/kg/injection, schedule: Q01DX009 (ip), vehicle: water 94 % of control and 96 % of control | endpoint: mean survival time, dose: 200.0 mg/kg/injection, schedule: Q01DX009 (ip), vehicle: water 91 % of control and 102 % of control | endpoint: mean survival time, dose: 400.0 mg/kg/injection, schedule: Q01DX009 (ip), vehicle: water 95 % of control and 97 % of control | endpoint: mean survival time, dose: 800.0 mg/kg/injection, schedule: Q01DX009 (ip), vehicle: water 93 % of control and 100 % of control

[O-][n+]1c(CN2CCCCC2)nc2cccc3c2c1-c1ccccc1-3
inactive: [18] 104 % of control | endpoint: mean survival time, dose: 25.0 mg/kg/injection, schedule: Q01DX009 (ip), vehicle: saline with Tween-80 103 % of control | [11] 103 % of control | [12] 113 % of control | [14] 109 % of control

Oc1ccc(CCNCc2cc3c(cc2Br)OCO3)cc1
inactive: [1] 104 % of control | [2] 96 % of control | [3] 104 % of control

CCC1(CC)OC2=C(CC(C#N)(C#N)C(C#N)(C#N)C2)O1
inactive: endpoint: mean survival time, dose: 5.0 mg/kg/injection, schedule: Q04DX003 (ip), vehicle: other 103 % of control | endpoint: mean survival time, dose: 10.0 mg/kg/injection, schedule: Q04DX003 (ip), vehicle: other 92 % of control | endpoint: mean survival time, dose: 20.0 mg/kg/injection, schedule: Q04DX003 (ip), vehicle: other 96 % of control

CCOP(=O)(OCC)/C(C#N)=C\c1ccc(OC)c(OC)c1
inactive: [12] 98 % of control | [14] 94 % of control | [16] 100 % of control

CNc1nc(N)[nH]c(=O)c1N=O
inactive: endpoint: mean survival time, dose: 50.0 mg/kg/injection, schedule: Q04DX002 (ip), vehicle: saline with Tween-80 105 % of control | [6] 102 % of control | [7] 105 % of control
